According to patent publication US20120129842A1, “BISTHIAZOLE INHIBITORS OF PRO-MATRIX METALLOPROTEINASE ACTIVATION” (priority 2010, published 2012):
Structures can show the parent of a compound that is named as a salt.

Assays:
[1] = biological target: T1, full-length proMMP9(1-707) (SEQ ID NO:1) (Homo sapiens, UniProt P14780, R574P); assay: proMMP9/MMP3 P126 Activation Assay; type: biochemical; settings: 20 nM proMMP9, 20 nM MMP3, 80 min 37° C.
T1 construct: made in house; host or cells: HEK293 (proMMP9, secreted); E. coli (MMP3)
T1 sequence (P14780 20-707 R574P): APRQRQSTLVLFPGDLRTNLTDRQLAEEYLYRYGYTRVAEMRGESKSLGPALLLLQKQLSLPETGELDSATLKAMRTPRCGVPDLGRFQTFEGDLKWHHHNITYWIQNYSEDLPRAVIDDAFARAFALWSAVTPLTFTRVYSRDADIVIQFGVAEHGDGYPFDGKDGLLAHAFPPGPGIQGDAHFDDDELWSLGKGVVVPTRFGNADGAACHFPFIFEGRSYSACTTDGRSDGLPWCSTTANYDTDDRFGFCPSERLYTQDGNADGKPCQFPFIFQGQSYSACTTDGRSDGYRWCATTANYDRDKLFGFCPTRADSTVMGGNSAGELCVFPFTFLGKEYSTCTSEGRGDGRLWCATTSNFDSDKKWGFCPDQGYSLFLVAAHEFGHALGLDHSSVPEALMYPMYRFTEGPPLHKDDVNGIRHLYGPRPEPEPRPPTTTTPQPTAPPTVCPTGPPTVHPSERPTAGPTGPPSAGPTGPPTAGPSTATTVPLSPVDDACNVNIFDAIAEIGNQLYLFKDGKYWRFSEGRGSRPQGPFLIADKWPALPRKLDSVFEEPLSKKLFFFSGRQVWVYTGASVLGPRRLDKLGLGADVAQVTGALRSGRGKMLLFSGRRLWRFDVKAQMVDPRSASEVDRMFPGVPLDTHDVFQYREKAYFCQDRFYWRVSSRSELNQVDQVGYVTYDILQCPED
Experimental: The reaction volume was 50 μL. […] Reactivity of residual MMP3 towards P-126 substrate was minimal under these conditions.

[2] = biological target: proMMP13(1-268) (SEQ ID NO:7) (Homo sapiens, UniProt P45452); assay: ThermoFluor binding assay with proMMP13(1-268); parameters: 6xHis (C); made in house; settings: pH 7.0
Outline: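 Thermal shift binding with 3.5 μM protein and 25 μM 1,8-ANS in 50 mM HEPES pH 7.0, 100 mM NaCl, 0.001% Tween-20, 2.5 mM MgCl2, 300 μM CaCl2. Samples were heated 40 to 90 °C at 1 °C/min, fluorescence read at 500 nm. Tm shifts across an 11-point DMSO dilution series were fitted with DSC-derived thermodynamic parameters.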

[3] = biological target: T2, proMMP9(20-445;ΔFnII) (SEQ ID NO:6) (Homo sapiens, UniProt P14780, DEL216-390); assay: ThermoFluor binding assay with proMMP9(20-445;ΔFnII); settings: pH 7.0
T2 construct: start methionine (N); made in house; host or cells: E. coli BL21(DE3) RIL
T2 sequence (P14780 with tags, fused parts or gaps DEL216-390): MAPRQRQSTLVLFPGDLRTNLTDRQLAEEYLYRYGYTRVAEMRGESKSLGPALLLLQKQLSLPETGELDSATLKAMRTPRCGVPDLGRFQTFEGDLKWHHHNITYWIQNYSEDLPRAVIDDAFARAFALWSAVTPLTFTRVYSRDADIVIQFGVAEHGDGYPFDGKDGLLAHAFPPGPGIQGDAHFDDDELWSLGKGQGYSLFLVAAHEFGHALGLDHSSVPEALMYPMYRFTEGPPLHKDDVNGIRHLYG
Outline: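 proMMP9(20-445;ΔFnII) at 2.8 μM with 50 μM 1,8-ANS in 50 mM HEPES pH 7.0, 100 mM NaCl, 0.001% Tween-20, 2.5 mM MgCl2, 300 μM CaCl2; compounds serially diluted in DMSO. Heated 40–90 °C at 1 °C/min, fluorescence read at 500±25 nm. Tm fit by standard equations; binding fit using DSC/TF-derived thermodynamic parameters.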

[4] = biological target: T3, proMMP9(67-444;ΔFnII) (SEQ ID NO:5) (Homo sapiens, UniProt P14780, DEL216-390); assay: ThermoFluor binding assay with proMMP9(67-444;ΔFnII); settings: pH 7.0
T3 construct: start methionine (N); made in house; host or cells: E. coli BL21(DE3) RIL
T3 sequence (P14780 with tags, fused parts or gaps DEL216-390): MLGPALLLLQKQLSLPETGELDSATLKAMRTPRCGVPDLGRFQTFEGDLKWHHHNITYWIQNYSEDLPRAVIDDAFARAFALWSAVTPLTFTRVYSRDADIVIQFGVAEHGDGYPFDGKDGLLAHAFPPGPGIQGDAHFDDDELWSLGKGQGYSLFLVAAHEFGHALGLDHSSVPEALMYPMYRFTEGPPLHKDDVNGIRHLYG
Outline: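 Thermal shift binding with 3.5 μM proMMP9(67-444;ΔFnII) and 50 μM 1,8-ANS in 50 mM HEPES pH 7.0, 100 mM NaCl, 2.5 mM MgCl2, 300 μM CaCl2, 0.001% Tween-20, with serially diluted compound. Heated 40 to 90° C at 1° C/min; fluorescence-derived Tm fitted using DSC/ThermoFluor thermodynamic parameters.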

Structure (SMILES)	IC50 [1]	Kd [2]	Kd [3]	Kd [4]
Cc1nc(N)sc1-c1csc(Nc2cc(S(C)(=O)=O)ccc2OC(C)C)n1 [Example 44, N^2-(2-Isopropoxy-5-methanesulfonyl-phenyl)-4′-methyl-[4,5′]bithiazolyl-2,2′-diamine.TFA]	0.41 µM	0.07 µM	0.072 µM	0.24 µM
CCOc1ccc(C(N)=O)cc1Nc1nc(-c2sc(C)nc2C)cs1 [Example 6, 3-(2′,4′-Dimethyl-[4,5′]bithiazolyl-2-ylamino)-4-ethoxy-benzamide.TFA]	0.16 µM	2 µM	0.2 µM	0.58 µM
CCS(=O)(=O)c1ccc(OC)c(Nc2nc(-c3sc(N)nc3C)cs2)c1 [Example 51, N^2-(5-Ethanesulfonyl-2-methoxy-phenyl)-4′-methyl-[4,5′]bithiazolyl-2,2′-diamine.TFA]	4.1 µM	1.9 µM	1.1 µM	3 µM
CCOC(=O)c1ccc(OCC)c(Nc2nc(-c3sc(NC(C)=O)nc3C)cs2)c1 [Example 83, 3-(2′-Acetylamino-4′-methyl-[4,5′]bithiazolyl-2-ylamino)-4-ethoxy-benzoic acid ethyl ester.HBr]	0.48 µM	1.5 µM	3.9 µM	0.49 µM
CCS(=O)(=O)c1ccc(OC)c(Nc2nc(-c3sc(NC(C)=O)nc3C)cs2)c1 [Example 49, N-[2-(5-Ethanesulfonyl-2-methoxy-phenylamino)-4′-methyl-[4,5]bithiazolyl-2′-yl]-acetamide.TFA]	3 µM	6.1 µM	4.1 µM	2.5 µM
CC(=O)Nc1nc(C)c(-c2csc(Nc3cc(C(N)=O)ccc3OC(C)C)n2)s1 [Example 3, 3-(2′-Acetylamino-4′-methyl-[4,5′]bithiazolyl-2-ylamino)-4-isopropoxy-benzamide.HBr]	0.13 µM	0.3 µM	0.41 µM	0.3 µM
CCCOc1ccc(C(N)=O)cc1Nc1nc(-c2sc(C)nc2C)cs1 [Example 13, 3-(2′,4′-Dimethyl-[4,5′]bithiazolyl-2-ylamino)-4-propoxy-benzamide]	6.1 µM	7 µM	0.83 µM	5.1 µM
COc1ccc(C(=O)O)cc1Nc1nc(-c2sc(N)nc2C)cs1 [Example 55, 3-(2′-Amino-4′-methyl-[4,5′]bithiazolyl-2-ylamino)-4-methoxy-benzoic acid.HBr]	0.74 µM	9.8 µM	2.5 µM	1.7 µM
COc1ccc(C(N)=O)cc1Nc1nc(-c2sc(NC(C)=O)nc2C)cs1 [Example 85, 3-(2′-Acetylamino-4′-methyl-[4,5′]bithiazolyl-2-ylamino)-4-methoxy-benzamide.HBr]	0.27 µM	43 µM	3.5 µM	0.75 µM
CCOc1ccc(C(=O)O)cc1Nc1nc(-c2sc(NC(C)=O)nc2C)cs1 [Example 48, 3-(2′-Acetylamino-4′-methyl-[4,5′]bithiazolyl-2-ylamino)-4-ethoxy-benzoic acid.HBr]	1.4 µM	63 µM	23 µM	3.7 µM
Cc1nc(C)c(-c2csc(Nc3cc(C(N)=O)ccc3OC(C)C)n2)s1 [Example 1, 3-(2′,4′-Dimethyl-[4,5′]bithiazolyl-2-ylamino)-4-isopropoxy-benzamide.HBr]	0.16 µM	0.14 µM	0.026 µM	0.17 µM
COc1ccc(S(C)(=O)=O)cc1Nc1nc(-c2sc(N)nc2C)cs1 [Example 75, N^2-(5-Methanesulfonyl-2-methoxy-phenyl)-4′-methyl-[4,5′]bithiazolyl-2,2′-diamine.HBr]	1.6 µM	1.5 µM	1.1 µM	0.6 µM

Next, values leading:

IC50 [1]	Kd [2]	Kd [3]	Kd [4]	Structure (SMILES)
0.78 µM	4.9 µM	0.58 µM	3.2 µM	Cc1nc(CN2CCN(C(C)C)CC2)sc1-c1csc(Nc2cc(C(N)=O)ccc2OC(C)C)n1 [Example 125, 4-Isopropoxy-3-[2′-(4-isopropyl-piperazin-1-ylmethyl)-4′-methyl-[4,5]bithiazolyl-2-ylamino]-benzamide.TFA]
0.097 µM	0.45 µM	0.48 µM	1 µM	Cc1nc(C(=O)N2CCN(C(C)C)CC2)sc1-c1csc(Nc2cc(C(N)=O)ccc2OC(C)C)n1 [Example 103, 4-Isopropoxy-3-[2′-(4-isopropyl-piperazine-1-carbonyl)-4′-methyl-[4,5]bithiazolyl-2-ylamino]-benzamide.TFA]
0.5 µM	6.7 µM	2.7 µM	1.4 µM	CCOc1ccc(C(N)=O)cc1Nc1nc(-c2sc(C(=O)N3CCCN(C(C)C)CC3)nc2C)cs1 [Example 116, 4-Ethoxy-3-[2′-(4-isopropyl-[1,4]diazepane-1-carbonyl)-4′-methyl-[4,5]bithiazolyl-2-ylamino]-benzamide.TFA]
0.48 µM	5.6 µM	2.5 µM	1.6 µM	CCOc1ccc(C(N)=O)cc1Nc1nc(-c2sc(C(=O)N3CCCN(CC)CC3)nc2C)cs1 [Example 120, 4-Ethoxy-3-[2′-(4-ethyl-[1,4]diazepane-1-carbonyl)-4′-methyl-[4,5]bithiazolyl-2-ylamino]-benzamide.TFA]
0.66 µM	3.8 µM	0.97 µM	4 µM	Cc1nc(CN(C)CCN(C)C)sc1-c1csc(Nc2cc(C(N)=O)ccc2OC(C)C)n1 [Example 133, 3-(2′-{[(2-Dimethylamino-ethyl)-methyl-amino]-methyl}-4′-methyl-[4,5]bithiazolyl-2-ylamino)-4-isopropoxy-benzamide.TFA]
0.57 µM	> 57 µM	1.5 µM	1.9 µM	Cc1nc(C(=O)NC2CCN(C)CC2)sc1-c1csc(Nc2cc(C(N)=O)ccc2OC(C)C)n1 [Example 113, 2-(5-Carbamoyl-2-isopropoxy-phenylamino)-4′-methyl-[4,5′]bithiazolyl-2′-carboxylic acid (1-methyl-piperidin-4-yl)-amide.TFA]
1.2 µM	5.1 µM	0.72 µM	4.7 µM	Cc1nc(CN(C)C)sc1-c1csc(Nc2cc(C(N)=O)ccc2OC(C)C)n1 [Example 129, 3-(2′-Dimethylaminomethyl-4′-methyl-[4,5′]bithiazolyl-2-ylamino)-4-isopropoxy-benzamide.TFA]
~6 µM	6 µM	62 µM	16 µM	COc1ccc(-c2cncn2C)cc1Nc1nc(-c2sc(C)nc2C)cs1 [Example 143, (2′,4′-Dimethyl-[4,5′]bithiazolyl-2-yl)-[2-methoxy-5-(3-methyl-3H-imidazol-4-yl)-phenyl]-amine]
0.72 µM	11 µM	4.3 µM	21 µM	Cc1nc(S(C)(=O)=O)sc1-c1csc(Nc2cc(C(N)=O)ccc2OC(C)C)n1 [Example 132, 4-Isopropoxy-3-(2′-methanesulfonyl-4′-methyl-[4,5′]bithiazolyl-2-ylamino)-benzamide]
0.13 µM	0.53 µM	0.46 µM	0.61 µM	Cc1nc(C(=O)N2CCCN(C)CC2)sc1-c1csc(Nc2cc(C(N)=O)ccc2OC(C)C)n1 [Example 104, 4-Isopropoxy-3-[4′-methyl-2′-(4-methyl-[1,4]diazepane-1-carbonyl)-[4,5′]bithiazolyl-2-ylamino]-benzamide.TFA]
0.31 µM	1.8 µM	0.69 µM	0.96 µM	CCN1CCCN(C(=O)c2nc(C)c(-c3csc(Nc4cc(C(N)=O)ccc4OC(C)C)n3)s2)CC1 [Example 114, 3-[2′-(4-Ethyl-[1,4]diazepane-1-carbonyl)-4′-methyl-[4,5′]bithiazolyl-2-ylamino]-4-isopropoxy-benzamide.TFA]
